Results on eleven compounds are retold here after patent publication EP4610269A1, “UROKINASE PLASMINOGEN ACTIVATOR SURFACE RECEPTOR (UPAR) LIGANDS FOR DIAGNOSTIC OR THERAPEUTIC USE” (3B Pharmaceuticals GmbH, priority 2024, dated 2025).

The fraction remaining is what is left of the initial amount, in per cent. The term pIC50 denotes the negative decadic logarithm of the IC50, by convention in mol/L.

SMILES strings stand for the structures. pIC50: −log10 of the molar value. *1 amine or outer side, *2 acyl side, *3 side chain or, on linkers, in order; H or OH if unused. Where a SMILES comes first, the peptide text is derived from it. Bridges are numbered along the chain shown (N, C = ends). [ ]: non-standard residue; d: D form. The star is where a group is joined. DOTA = O=C(O)CN1CCN(CC(=O)O)CCN(CC(=O)*)CCN(CC(=O)O)CC1; Phe(4-CONH2) = NC(=O)c1ccc(C[C@H](N)C(=O)O)cc1; Pro(cis-4-F) = O=C(O)[C@@H]1C[C@H](F)CN1; Hyp = O=C(O)[C@@H]1C[C@@H](O)CN1; 3Pal = N[C@@H](Cc1cccnc1)C(=O)O; Pentanoyl(4-Me) = CC(C)CCC(=O)*; Cit = NC(=O)NCCC[C@H](N)C(=O)O; Butoxycarbonyl = CCCCOC(=O)*; Suc = O=C(CCC(=O)[*:2])[*:1]; Orn = NCCC[C@H](N)C(=O)O; Nva = CCC[C@H](N)C(=O)O; Pentanoyl = CCCCC(=O)*; AEEA = NCCOCCOCC(=O)O

Data set [1] concerns the target T1, Recombinant soluble human NEP (Homo sapiens, UniProt P08473).
T1 construct: Recombinant soluble human NEP; purchased BioTechne, Wiesbaden, Germany
Kind of data set: Proteolytic stability assay against NEP. It counts as in vitro ADME. The note with it: recombinant soluble human NEP, human NEP 100 ng/mL, compound 10 µM, 37°C, LC-MS quantification, read-out: % intact compound remaining after 24h incubation. The procedure: To assess the stability of compounds against NEP, the compounds were subjected to an in vitro assay based on the protocol described by Edelson et al. (Edelson, Makhlina et al. 2013).
Recombinant soluble human NEP (BioTechne, Wiesbaden, Germany) at a concentration of 100 ng/mL was mixed with the compound (10 µM) and a stable internal standard (10 µM) and incubated at 37°C. After several time points, samples were taken and analyzed with LC-MS.
The determination of the analyte in the clean sample solutions was performed on an Agilent 1290 UHPLC system coupled to an Agilent 6530 Q-TOF mass spectrometer. The chromatographic separation was carried out on a Phenomenex BioZen XB-C18 HPLC column (50 × 2 mm, 1.7 µm particle size) with gradient elution using a mixture of 0.1% formic acid in water as eluent A and acetonitrile as eluent B (2% B to 41% in 7 min, 800 µl/min, 40°C). Mass spectrometric detection was performed in positive ion ESI mode by scanning the mass range from m/z 50 to 3000 with a sampling rate of 2 / sec.
From the mass spectrometric raw data the ion currents for the double or triple charged monoisotopic signal was extracted for both, the compound and the internal standard.
Quantitation was performed by external matrix calibration with internal standard using the integrated analyte signals.
The activity of NEP was examined using a commercially available chromogenic substrate of NEP.
The result is stated as "% intact compound remaining after 24 h incubation" and means that from the amount of material at the start of the experiment the stated percentage is detected as unchanged material at the end of the experiment by LC-MS quantification. Since all compounds are more than 50% intact after 24 h they are considered as stable enough for diagnostic and therapeutic applications. Table 14: Results of the NEP stability assay

For data set [2], the target named is T2, uPAR-expressing HEC-265 human endometrial adenocarcinoma cells (Homo sapiens, UniProt Q03405).
T2 construct: Cell surface uPAR-expressing HEC-265 human endometrial adenocarcinoma cells; host or cells: HEC-265
T2 sequence (Q03405 23-335): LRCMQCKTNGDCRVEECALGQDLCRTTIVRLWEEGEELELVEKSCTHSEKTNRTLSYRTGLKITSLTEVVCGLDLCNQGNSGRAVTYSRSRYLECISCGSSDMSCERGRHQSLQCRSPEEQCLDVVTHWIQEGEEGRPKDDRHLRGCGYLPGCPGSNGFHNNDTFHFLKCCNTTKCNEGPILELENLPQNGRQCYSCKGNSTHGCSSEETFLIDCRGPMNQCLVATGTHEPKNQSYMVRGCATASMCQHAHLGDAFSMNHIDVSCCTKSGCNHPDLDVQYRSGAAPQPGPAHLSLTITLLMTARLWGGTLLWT
The experiment in a line: Competitive FACS binding assay. The note with it: pIC50 category of FACS binding. The gist of the method:
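HEC-265 cells incubated 1 h at 4 °C with 10 nM biotinylated uPAR peptide tracer plus increasing test compound, then stained with APC-streptavidin on ice. Median APC fluorescence by flow cytometry; 4PL fit gives pIC50.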

T1 sequence (P08473 52-750 limits assumed): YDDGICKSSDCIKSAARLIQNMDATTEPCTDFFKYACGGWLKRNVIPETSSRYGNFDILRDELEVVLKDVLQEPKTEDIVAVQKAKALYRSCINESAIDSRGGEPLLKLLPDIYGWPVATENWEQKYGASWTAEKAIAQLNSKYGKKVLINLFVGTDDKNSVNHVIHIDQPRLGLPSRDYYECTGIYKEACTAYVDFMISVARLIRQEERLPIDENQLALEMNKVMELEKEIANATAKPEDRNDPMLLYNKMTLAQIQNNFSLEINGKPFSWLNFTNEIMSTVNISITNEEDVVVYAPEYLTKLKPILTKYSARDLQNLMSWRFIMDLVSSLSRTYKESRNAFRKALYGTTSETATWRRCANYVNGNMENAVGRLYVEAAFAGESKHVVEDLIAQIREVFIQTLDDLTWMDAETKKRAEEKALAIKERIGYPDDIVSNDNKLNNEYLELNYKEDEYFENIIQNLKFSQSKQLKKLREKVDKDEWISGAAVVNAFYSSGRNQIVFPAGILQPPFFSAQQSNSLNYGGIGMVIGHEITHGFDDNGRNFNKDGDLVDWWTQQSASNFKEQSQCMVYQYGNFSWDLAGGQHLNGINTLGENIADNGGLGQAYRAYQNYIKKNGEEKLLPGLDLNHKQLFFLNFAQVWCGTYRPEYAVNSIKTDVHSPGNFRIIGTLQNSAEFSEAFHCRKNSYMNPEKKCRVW

`CCCCC(=O)N[C@H]1CSSC[C@@H](C(N)=O)NC(=O)[C@H](CCC)NC(=O)[C@H]([C@@H](C)CC)NC(=O)[C@@H]2C[C@@H](O)CN2C(=O)[C@@H]2CCCN2C(=O)[C@H](Cc2ccccc2)NC(=O)[C@H](Cc2cccnc2)NC(=O)[C@H](CCCCNC(=O)CN2CCN(CC(=O)O)CCN(CC(=O)O)CCN(CC(=O)O)CC2)NC(=O)[C@H](CCCNC(N)=O)NC1=O` [UPAR-138, Pent-[Cys-Cit-Lys(DOTA)-Mpa-Phe-Pro-Hyp-Ile-Nva-Cys]-NH2] (Pentanoyl-C[Cit]K(DOTA)[3Pal]FP[Hyp]I[Nva]C-NH2; disulfide 1-10): the amount remaining at 24 h, 10 µM in data set [1] worked out at 94%. In data set [2], this compound gave a pIC50 of no less than 8.00.
Taken in the same sequence, the figures for `CC[C@H](C)[C@@H]1NC(=O)[C@@H]2C[C@@H](O)CN2C(=O)[C@@H]2CCCN2C(=O)[C@H](Cc2ccccc2)NC(=O)[C@H](Cc2ccc(O)cc2)NC(=O)[C@H](CCC(N)=O)NC(=O)[C@H](CCCNC(N)=O)NC(=O)[C@@H](NC(=O)CCC(C)C)CSSC[C@@H](C(N)=O)NC(=O)[C@H](CC(C)C)NC1=O` [UPAR-174, iHex-[Cys-Cit-Gln-Tyr-Phe-Pro-Hyp-Ile-Leu-Cys]-NH2] ({Pentanoyl(4-Me)}-C[Cit]QYFP[Hyp]ILC-NH2; disulfide 1-10) were 90% and no less than 8.00.
Taken in the same sequence, the figures for `CC[C@H](C)[C@@H]1NC(=O)[C@@H](C)NC(=O)[C@@H]2CCCN2C(=O)[C@H](Cc2ccccc2)NC(=O)[C@H](Cc2ccc(O)cc2)NC(=O)[C@H](CCCCNC(=O)CN2CCN(CC(=O)O)CCN(CC(=O)O)CCN(CC(=O)O)CC2)NC(=O)[C@H](CCCNC(N)=O)NC(=O)[C@@H](NC(=O)[C@H](CC(C)C)NC(=O)[C@H](CC(=O)O)NC(C)=O)CSSC[C@@H](C(N)=O)NC(=O)[C@H](CC(C)C)NC1=O` [UPAR-189, Ac-Asp-Leu-[Cys-Cit-Lys(DOTA)-Tyr-Phe-Pro-ala-Ile-Leu-Cys]-NH2] (Ac-DLC[Cit]K(DOTA)YFP[dA]ILC-NH2; disulfide 3-12) were 94% and no less than 8.00.
For `CC[C@H](C)[C@@H]1NC(=O)[C@@H]2CCCN2C(=O)[C@@H]2CCCN2C(=O)[C@H](Cc2ccccc2)NC(=O)[C@H](Cc2ccc(O)cc2)NC(=O)[C@H](CCC(N)=O)NC(=O)[C@H](CCCNC(N)=O)NC(=O)[C@@H](NC(=O)[C@H](CC(C)C)NC(=O)COCCOCCNC(=O)CN2CCN(CC(=O)O)CCN(CC(=O)O)CCN(CC(=O)O)CC2)CSSC[C@@H](C(N)=O)NC(=O)[C@H](CC(C)C)NC1=O` [UPAR-229, DOTA-O2Oc-Leu-[Cys-Cit-Gln-Tyr-Phe-Pro-Pro-Ile-Leu-Cys]-NHz] ({DOTA-AEEA}-LC[Cit]QYFPPILC-NH2; disulfide 2-11), in data set [1], the fraction remaining at 24 h, 10 µM turned out to be 84%. Besides, the pIC50 in data set [2] was no less than 8.00.
Taken in the same sequence, the figures for `CC[C@H](C)[C@@H]1NC(=O)[C@@H](C)NC(=O)[C@@H]2CCCN2C(=O)[C@H](Cc2ccccc2)NC(=O)[C@H](Cc2ccc(O)cc2)NC(=O)[C@H](CCC(N)=O)NC(=O)[C@H](CCCNC(N)=O)NC(=O)[C@@H](NC(=O)[C@H](CC(C)C)NC(=O)COCCOCCNC(=O)CN2CCN(CC(=O)O)CCN(CC(=O)O)CCN(CC(=O)O)CC2)CSSC[C@@H](C(N)=O)NC(=O)[C@H](CC(C)C)NC1=O` [UPAR-245, DOTA-O2Oc-Leu-[Cys-Cit-Gln-Tyr-Phe-Pro-ala-Ile-Leu-Cys]-NH2] ({DOTA-AEEA}-LC[Cit]QYFP[dA]ILC-NH2; disulfide 2-11) were 72% and no less than 8.00.
Taken in the same sequence, the figures for `CCCCC(=O)N[C@H]1CSSC[C@@H](C(N)=O)NC(=O)[C@H](CCC)NC(=O)[C@H]([C@@H](C)CC)NC(=O)[C@@H]2C[C@@H](O)CN2C(=O)[C@@H]2CCCN2C(=O)[C@H](Cc2ccccc2)NC(=O)[C@H](Cc2ccc(O)cc2)NC(=O)[C@H](CCCCNC(=O)CN2CCN(CC(=O)O)CCN(CC(=O)O)CCN(CC(=O)O)CC2)NC(=O)[C@H](CCCNC(N)=O)NC1=O` [UPAR-261, Pent-[Cys-Cit-Lys(DOTA)-Tyr-Phe-Pro-Hyp-Ile-Nva-Cys]-NH2] (Pentanoyl-C[Cit]K(DOTA)YFP[Hyp]I[Nva]C-NH2; disulfide 1-10) were 86% and no less than 8.00.
Taken in the same sequence, the figures for `CCCCOC(=O)N[C@H]1CSSC[C@@H](C(N)=O)NC(=O)[C@H](CCC)NC(=O)[C@H]([C@@H](C)CC)NC(=O)[C@@H]2C[C@@H](O)CN2C(=O)[C@@H]2C[C@H](F)CN2C(=O)[C@H](Cc2ccccc2)NC(=O)[C@H](Cc2ccc(C(N)=O)cc2)NC(=O)[C@H](CCCNC(=O)CN2CCN(CC(=O)O)CCN(CC(=O)O)CCN(CC(=O)O)CC2)NC(=O)[C@H]([C@@H](C)O)NC1=O` [UPAR-276, Butoc-[Cys-Thr-Orn(DOTA)-Pcnf-Phe-4Cfp-Hyp-Ile-Nva-Cys]-NHz] (Butoxycarbonyl-CT[Orn](DOTA)[Phe(4-CONH2)]F[Pro(cis-4-F)][Hyp]I[Nva]C-NH2; disulfide 1-10) were 88% and no less than 8.00.
For `CCC[C@H](NC(=O)CCC(=O)O)C(=O)N[C@H]1CSSC[C@@H](C(N)=O)NC(=O)[C@H](CCC)NC(=O)[C@H]([C@@H](C)CC)NC(=O)[C@@H]2C[C@@H](O)CN2C(=O)[C@@H]2CCCN2C(=O)[C@H](Cc2ccccc2)NC(=O)[C@H](Cc2ccc(O)cc2)NC(=O)[C@H](CCCCNC(=O)CN2CCN(CC(=O)O)CCN(CC(=O)O)CCN(CC(=O)O)CC2)NC(=O)[C@H](CCCNC(N)=O)NC1=O` [UPAR-293, HO-Succinyl-Nva-[Cys-Cit-Lys(DOTA)-Tyr-Phe-Pro-Hyp-Ile-Nva-Cys]-NH2] (Suc-[Nva]C[Cit]K(DOTA)YFP[Hyp]I[Nva]C-NH2; disulfide 2-11), in data set [1], the share remaining at 24 h, 10 µM was greater than 95%. In addition, the pIC50 in data set [2] is no less than 8.00.
The corresponding values for `CC[C@H](C)[C@@H]1NC(=O)[C@@H](CCCNC(=N)N)NC(=O)[C@@H]2CCCN2C(=O)[C@H](Cc2ccccc2)NC(=O)[C@H](Cc2ccc(O)cc2)NC(=O)[C@H](CCCCNC(=O)CN2CCN(CC(=O)O)CCN(CC(=O)O)CCN(CC(=O)O)CC2)NC(=O)[C@H](CCCNC(N)=O)NC(=O)[C@@H](NC(=O)[C@H](CC(C)C)NC(=O)[C@H](CC(=O)O)NC(C)=O)CSSC[C@@H](C(N)=O)NC(=O)[C@H](CC(C)C)NC1=O` [UPAR-306, Ac-Asp-Leu-[Cys-Cit-Lys(DOTA)-Tyr-Phe-Pro-arg-Ile-Leu-Cys]-NH2] (Ac-DLC[Cit]K(DOTA)YFP[dR]ILC-NH2; disulfide 3-12) are 88% and no less than 8.00.
With `CC[C@H](C)[C@@H]1NC(=O)[C@@H](C)NC(=O)[C@@H]2CCCN2C(=O)[C@H](Cc2ccccc2)NC(=O)[C@H](Cc2ccc(O)cc2)NC(=O)[C@H](CCC(N)=O)NC(=O)[C@H](CCCNC(N)=O)NC(=O)[C@@H](NC(=O)CCC(C)C)CSSC[C@@H](C(N)=O)NC(=O)[C@H](CC(C)C)NC1=O` [UPAR-338, iHex-[Cys-Cit-Gln-Tyr-Phe-Pro-ala-Ile-Leu-Cys]-NH2] ({Pentanoyl(4-Me)}-C[Cit]QYFP[dA]ILC-NH2; disulfide 1-10), in data set [1], the amount remaining at 24 h, 10 µM is 70%. This compound also gave a pIC50 in data set [2] of no less than 8.00.
Taken in the same sequence, the figures for `CC[C@H](C)[C@@H]1NC(=O)[C@@H]2CCCN2C(=O)[C@@H]2CCCN2C(=O)[C@H](Cc2ccccc2)NC(=O)[C@H](Cc2ccc(O)cc2)NC(=O)[C@H](CCCCNC(=O)CN2CCN(CC(=O)O)CCN(CC(=O)O)CCN(CC(=O)O)CC2)NC(=O)[C@H](CCCNC(N)=O)NC(=O)[C@@H](NC(=O)CCC(C)C)CSSC[C@@H](C(N)=O)NC(=O)[C@H](CC(C)C)NC1=O` [UPAR-382, iHex-[Cys-Cit-Lys(DOTA)-Tyr-Phe-Pro-Pro-Ile-Leu-Cys]-NHz] ({Pentanoyl(4-Me)}-C[Cit]K(DOTA)YFPPILC-NH2; disulfide 1-10) were greater than 95% and no less than 8.00.
